# US20250276962A1, “CONTRACEPTIVE COMPOUNDS AND METHODS” (Regents of the University of Minnesota, priority 2021, published 2025)
# “And” between values parts separate entries of the source, which are not always exact repeats. Equal entries are not always repeated. Where two headings read alike, the source gives them in different places.
# Legend:
# [1] = molecular target: hERG (Homo sapiens, UniProt Q12809); assay: in vitro; settings: human
# Protocol: (§1) The potential inhibitory effect on human Ether-á-go-go related gene (hERG) channel was evaluated using a manual patch-clamp system. A HEK293 cell line stably transfected with hERG gene was employed.
# [2] = molecular target: human Ether-á-go-go related gene (hERG) channel (Homo sapiens, UniProt Q12809); assay: cell-based
# Chain of human Ether-á-go-go related gene (hERG) channel (Q12809 whole entry): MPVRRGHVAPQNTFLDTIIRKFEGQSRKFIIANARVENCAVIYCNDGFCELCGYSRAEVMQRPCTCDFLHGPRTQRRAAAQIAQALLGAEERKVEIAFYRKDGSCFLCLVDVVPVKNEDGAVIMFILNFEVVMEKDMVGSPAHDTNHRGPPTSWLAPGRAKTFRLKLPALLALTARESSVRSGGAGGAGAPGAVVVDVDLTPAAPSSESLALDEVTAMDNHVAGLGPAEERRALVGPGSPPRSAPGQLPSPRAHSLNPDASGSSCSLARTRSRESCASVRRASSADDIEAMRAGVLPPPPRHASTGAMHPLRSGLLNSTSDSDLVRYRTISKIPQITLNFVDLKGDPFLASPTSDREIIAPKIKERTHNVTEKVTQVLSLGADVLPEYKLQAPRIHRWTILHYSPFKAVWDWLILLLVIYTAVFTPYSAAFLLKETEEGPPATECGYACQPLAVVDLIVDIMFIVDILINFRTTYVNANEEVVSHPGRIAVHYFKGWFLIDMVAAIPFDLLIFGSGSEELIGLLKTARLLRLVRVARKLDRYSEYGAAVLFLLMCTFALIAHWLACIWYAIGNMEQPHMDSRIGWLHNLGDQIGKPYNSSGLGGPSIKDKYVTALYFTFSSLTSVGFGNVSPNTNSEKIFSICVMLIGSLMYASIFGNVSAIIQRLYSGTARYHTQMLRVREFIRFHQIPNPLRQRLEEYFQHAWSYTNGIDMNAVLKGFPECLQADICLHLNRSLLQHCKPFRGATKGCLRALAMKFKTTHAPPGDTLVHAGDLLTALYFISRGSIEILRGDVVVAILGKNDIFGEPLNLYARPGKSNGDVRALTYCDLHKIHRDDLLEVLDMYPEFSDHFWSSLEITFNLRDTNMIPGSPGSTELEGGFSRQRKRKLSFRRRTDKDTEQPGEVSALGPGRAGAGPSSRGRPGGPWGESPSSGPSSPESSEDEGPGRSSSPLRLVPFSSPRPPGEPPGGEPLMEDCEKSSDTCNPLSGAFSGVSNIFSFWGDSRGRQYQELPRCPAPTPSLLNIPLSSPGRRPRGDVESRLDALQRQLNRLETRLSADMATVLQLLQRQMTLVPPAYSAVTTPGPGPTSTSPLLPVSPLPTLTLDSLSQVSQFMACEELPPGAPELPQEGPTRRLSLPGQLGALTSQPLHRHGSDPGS
# Protocol: as §1
# [3] = tested on: male cynomolgus macaques; assay: Cynomolgus macaque study with sperm counts per ejaculate as readout; type: in vivo
# Protocol: Sperm counts were assessed weekly or bi-weekly in fresh semen samples obtained with electroejaculation. 3 macaques were orally dosed with 2.5 mg/kg, which is the dose equivalent to 10 mg/kg in mouse based on body surface area. […] The animals are now in recovery to assess reversibility (data not shown). […] After dosing for another week at 7.5 mg/kg/day, individual sperm counts were 132, 38 and 12×10^6 showing efficacy in all 3 animals. Since day 38, the animals have been in recovery to assess reversibility. Four weeks after the animals received the last dose, individual sperm counts were 297, 71 and 300×10^6 showing 50% reversibility in animal #1, 65% reversibility in animal #2 and 100% reversibility in animal #3.
# [4] = molecular target: Kir2.1 (potassium channel of excitable cells) (Homo sapiens, UniProt P63252); assay: Off-target screening, Kir2.1; type: cell-based
# Chain of Kir2.1 (potassium channel of excitable cells) (P63252 whole entry): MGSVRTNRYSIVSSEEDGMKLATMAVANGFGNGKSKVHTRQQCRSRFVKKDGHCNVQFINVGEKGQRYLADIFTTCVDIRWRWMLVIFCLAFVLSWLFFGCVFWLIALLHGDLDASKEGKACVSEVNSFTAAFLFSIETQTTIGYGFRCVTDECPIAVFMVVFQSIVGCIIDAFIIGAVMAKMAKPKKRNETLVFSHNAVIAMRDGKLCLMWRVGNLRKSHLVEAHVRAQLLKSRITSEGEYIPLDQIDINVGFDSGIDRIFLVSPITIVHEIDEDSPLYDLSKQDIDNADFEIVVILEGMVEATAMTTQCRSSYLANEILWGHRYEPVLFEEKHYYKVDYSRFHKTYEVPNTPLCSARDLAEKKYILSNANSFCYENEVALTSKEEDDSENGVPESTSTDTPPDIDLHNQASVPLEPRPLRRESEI
# [5] = molecular target: NaV1.5 (Homo sapiens, UniProt Q14524); assay: Off-target screening, NaV1.5; type: cell-based; settings: 10 μM
# [6] = molecular target: NaV1.5 (cardiac sodium ion channel) (Homo sapiens, UniProt Q14524); assay: Off-target screening, NaV1.5; type: cell-based
# [7] = molecular target: cyclooxygenase 2 (COX2) (Homo sapiens, UniProt P35354); assay: Off-target screening, COX2; type: biochemical
# Chain of cyclooxygenase 2 (COX2) (P35354 18-604, species assumed): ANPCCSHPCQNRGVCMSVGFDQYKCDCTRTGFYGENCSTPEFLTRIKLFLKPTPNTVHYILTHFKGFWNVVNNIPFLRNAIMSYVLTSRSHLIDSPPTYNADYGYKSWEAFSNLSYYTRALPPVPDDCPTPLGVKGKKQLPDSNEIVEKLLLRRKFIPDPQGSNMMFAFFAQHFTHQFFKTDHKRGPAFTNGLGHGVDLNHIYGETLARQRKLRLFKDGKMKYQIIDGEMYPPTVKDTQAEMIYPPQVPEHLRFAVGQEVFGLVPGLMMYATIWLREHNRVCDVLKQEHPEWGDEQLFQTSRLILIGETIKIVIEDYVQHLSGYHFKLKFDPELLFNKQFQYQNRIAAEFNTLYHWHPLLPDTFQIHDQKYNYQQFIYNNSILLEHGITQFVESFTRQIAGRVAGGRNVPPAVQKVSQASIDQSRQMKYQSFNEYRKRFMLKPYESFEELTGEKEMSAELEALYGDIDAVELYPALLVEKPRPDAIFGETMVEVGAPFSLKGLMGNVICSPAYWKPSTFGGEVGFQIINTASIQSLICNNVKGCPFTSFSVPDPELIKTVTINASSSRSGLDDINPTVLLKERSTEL
# [8] = Stability in monkey hepatocytes; type: in vitro ADME; settings: read-out: Half-life (T1/2) Hepatocytes (Phase I and Phase II metabolism) (converted)
# [9] = Stability in rat hepatocytes; type: in vitro ADME; settings: read-out: Half-life (T1/2) Hepatocytes (Phase I and Phase II metabolism) (converted)
# [10] = Stability in rat liver microsomes; type: in vitro ADME; settings: read-out: Half-life (T1/2) Liver microsomes (Phase I metabolism)
# [11] = Stability in rabbit liver microsomes; type: in vitro ADME; settings: read-out: Half-life (T1/2) Liver microsomes (Phase I metabolism) (converted)
# [12] = Stability in dog liver microsomes; type: in vitro ADME; settings: read-out: Half-life (T1/2) Liver microsomes (Phase I metabolism)
# [13] = tested on: HepG2
# [14] = tested on: male Sprague-Dawley rats
# [15] = in vitro; settings: human hepatocytes
# [16] = Single dose toxicity, rat; settings: Sprague-Dawley, in vivo, Maximum tolerated dose (MTD), Sprague-Dawley rats, highest dose level tested
# [17] = Single dose toxicity, dog; settings: Beagle, in vivo, Maximum tolerated dose (MTD), Beagle dogs, highest dose level tested
# Chain of hERG (Q12809 whole entry): as the sequence (Q12809 whole entry) above
compound,measurement,setting,value
"Cc1ccc(C2=CC(C)(C)Oc3ccc(-c4ccc(-c5ccc(C(=O)[O-])cc5)[nH]4)cc32)cc1.[Na+] [Example 1, Sodium 4-(5-(2,2-dimethyl-4-(p-tolyl)-2H-chromen-6-yl)-1H-pyrrol-2-yl)benzoate]",inhibition at 3.33 µM,"[1]; % of hERG inhibition Cell 1, 3.33 μM",6.99%
same,inhibition at 10 µM,"[1]; % of hERG inhibition Cell 1, 10.00 μM",19.5%
same,inhibition at 30 µM,"[1]; % of hERG inhibition Cell 1, 30.00 μM",35.9%
same,inhibition at 3.33 µM,"[1]; % of hERG inhibition Cell 2, 3.33 μM",16.4%
same,inhibition at 10 µM,"[1]; % of hERG inhibition Cell 2, 10.00 μM",20.2%
same,inhibition at 30 µM,"[1]; % of hERG inhibition Cell 2, 30.00 μM",43.2%
same,inhibition at 3.33 µM,"[1]; Average % of hERG inhibition, 3.33 μM",11.7%
same,inhibition at 10 µM,"[1]; Average % of hERG inhibition, 10.00 μM",19.9%
same,IC50,[2],> 30 µM
same,hERG inhibitor ranking,[2]; human,The compound of Example lis not considered an hERG inhibitor. The IC50 in hERG-
same,IC50,"[2]; read-out: hERG IC50, hERG-transfected HEK293 cells",> 30 µM
same,IC50,"[2]; read-out: hERG IC50, hERG-transfected HEK293 cells, patch clamp",> 30 µM
same,Individual sperm counts per ejaculate,"[3]; second cohort (initial 598, 203 and 277), 5 mg/kg/day, after 14 days, 5 mg/kg/day",377 ×10^6 and 62 ×10^6 and 134 ×10^6
same,Individual sperm counts per ejaculate,"[3]; second cohort, 5 mg/kg/day, after 30 days, 5 mg/kg/day",262 ×10^6 and 28 ×10^6 and 70 ×10^6
same,Individual sperm counts per ejaculate,"[3]; second cohort, four weeks after the last dose",297 ×10^6 and 71 ×10^6 and 300 ×10^6
same,Reversibility of sperm count reduction,"[3]; second cohort, four weeks after the last dose, animal #1, #2, #3",50% and 65% and 100%
same,IC50,[4],> 10 µM
same,inhibition at 10 µM,[4]; read-out: Inhibition of Kir2.1,13.2%
same,inhibition at 10 µM,[5],37.4%
same,IC50,[6],8.8 µM
same,IC50,[7],8.51 µM
same,inhibition at 10 µM,[7]; read-out: Inhibition of COX2,61.8%
same,half-life,[8],3.2 h
same,half-life,[9],7.9 h
same,half-life,[10],> 23.1 h
same,half-life,[11],19.6 h
same,half-life,[12],> 23.1 h
same,Half-life (T1/2) Hepatocytes (Phase I and Phase II metabolism),mouse,4.8 h
same,In vitro Clint (μL/min/10^6 cells),mouse hepatocytes,4.79 μL/min/10^6 cells
same,In vitro T1/2,mouse hepatocytes,4.826 h
same,HepG2 cytotoxicity assay result,[13],negative
same,HepG2 cytotoxicity assay result,[13]; human,The compound of Example 1 showed no cytopathic effects in HepG2 and human
same,Safety margin,"[14]; male, Sprague-Dawley, rat, in vivo, 14 days",at least 10 ×
same,Tolerability after dose reduction to 75 mg/kg,"[14]; rat, in vivo","overall health and activity improved, they gained weight, and had normal CBC and clinical chemistry"
same,Tolerability,"[14]; rat, in vivo, 250 mg/kg/day",not tolerated
same,Tolerability,"[14]; rat, in vivo, po, 25 mg/kg/day",tolerated well
same,Tolerability,"[14]; rat, in vivo, po, 50 mg/kg/day",tolerated well
same,Tolerated dose on repeated dosing for 14 days,[14]; rats,50 to 75 mg/kg
same,CLint scaled,[15],6.75 mL/min/kg
same,MTD,[16],750 mg/kg
same,MTD,[17],> 500 mg/kg
